Assay results published in publication PMC11089506 (Journal of Medicinal Chemistry, 2024).
Where a name gives a salt, the structure may show the parent alone. Read-outs that look alike come from different tables or passages of the source.

Legend:
human 5-HT2BR = target: T1, human 5-HT2BR (Homo sapiens, UniProt P41595); assay: [125I]DOI competition binding assay
T1 construct: host or cells: HEK293 (membrane homogenates)
Method: (§1) Following incubation, the samples were filtered rapidly under vacuum through glass fiber filters (GF/B, Packard) presoaked with 0.3% polyethylenimine and rinsed several times with ice cold wash buffer (50 mM Tris-HCl, pH 7.4) using a 96-sample cell harvester (Unifilter, Packard). The filters were dried and then counted for radioactivity in a scintillation counter (Topcounter, Packard) using a scintillation cocktail (Microscint-0, Packard).

human 5-HT2CR = human 5-HT2CR (Homo sapiens, UniProt P28335); assay: [125I]DOI competition binding assay
Chain of human 5-HT2CR (P28335 33-458): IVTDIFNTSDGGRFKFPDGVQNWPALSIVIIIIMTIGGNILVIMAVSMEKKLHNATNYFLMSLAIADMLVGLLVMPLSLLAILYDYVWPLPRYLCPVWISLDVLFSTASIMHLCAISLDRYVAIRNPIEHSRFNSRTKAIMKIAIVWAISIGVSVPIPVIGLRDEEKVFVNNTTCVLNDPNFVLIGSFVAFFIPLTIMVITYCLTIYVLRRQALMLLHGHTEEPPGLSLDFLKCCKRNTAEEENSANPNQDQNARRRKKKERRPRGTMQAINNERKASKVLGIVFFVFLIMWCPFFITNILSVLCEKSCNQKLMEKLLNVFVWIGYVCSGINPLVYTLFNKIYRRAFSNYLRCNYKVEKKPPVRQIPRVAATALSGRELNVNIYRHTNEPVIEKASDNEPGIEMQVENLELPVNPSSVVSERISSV
Method: as §1

MDR1 = assay: MDR1-MDCK II permeability assay; assay type: in vitro ADME; conditions: dog, MDCK-MDR1, pH 7.4, Table S6
5-HT1B = target: T2, 5-HT1B (Homo sapiens, UniProt P28222); assay: radioligand competition binding, [3H]GR125743
T2 construct: Eurofins
T2 sequence (P28222 whole entry): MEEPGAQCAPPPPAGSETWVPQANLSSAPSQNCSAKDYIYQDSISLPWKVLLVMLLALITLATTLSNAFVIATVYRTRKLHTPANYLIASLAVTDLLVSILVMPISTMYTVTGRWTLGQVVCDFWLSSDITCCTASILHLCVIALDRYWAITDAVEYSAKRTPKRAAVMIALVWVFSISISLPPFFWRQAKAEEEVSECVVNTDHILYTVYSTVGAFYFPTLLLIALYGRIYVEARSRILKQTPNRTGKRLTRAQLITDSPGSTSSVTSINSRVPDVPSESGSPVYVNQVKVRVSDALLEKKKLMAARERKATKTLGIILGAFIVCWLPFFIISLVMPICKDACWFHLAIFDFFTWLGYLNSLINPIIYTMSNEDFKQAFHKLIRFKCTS

5-HT7 = target: T3, 5-HT7 (Homo sapiens, UniProt P34969); assay: radioligand competition binding, [3H]LSD
T3 construct: Eurofins
T3 sequence (P34969 whole entry): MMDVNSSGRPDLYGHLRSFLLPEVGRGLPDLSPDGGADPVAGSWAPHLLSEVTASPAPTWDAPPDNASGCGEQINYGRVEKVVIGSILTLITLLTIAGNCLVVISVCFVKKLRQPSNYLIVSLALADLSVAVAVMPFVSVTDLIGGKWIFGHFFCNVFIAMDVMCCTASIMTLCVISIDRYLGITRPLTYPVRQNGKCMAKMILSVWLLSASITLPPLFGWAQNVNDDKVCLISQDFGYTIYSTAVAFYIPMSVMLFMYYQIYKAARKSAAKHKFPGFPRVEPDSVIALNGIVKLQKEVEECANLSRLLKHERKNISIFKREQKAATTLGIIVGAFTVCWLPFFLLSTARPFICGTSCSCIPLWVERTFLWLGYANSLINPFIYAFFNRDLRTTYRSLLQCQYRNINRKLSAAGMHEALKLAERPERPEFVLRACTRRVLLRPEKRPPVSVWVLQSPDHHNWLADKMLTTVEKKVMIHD

[1] = target: T4, α2C (adrenergic receptor) (Homo sapiens, UniProt P18825); assay: radioligand competition binding, [3H]RX 821002
T4 construct: Eurofins

β2 (adrenergic receptor) = target: T5, β2 (adrenergic receptor) (Homo sapiens, UniProt P07550); assay: radioligand competition binding, [3H](-)CGP 12177
T5 construct: Eurofins
T5 sequence (P07550 whole entry): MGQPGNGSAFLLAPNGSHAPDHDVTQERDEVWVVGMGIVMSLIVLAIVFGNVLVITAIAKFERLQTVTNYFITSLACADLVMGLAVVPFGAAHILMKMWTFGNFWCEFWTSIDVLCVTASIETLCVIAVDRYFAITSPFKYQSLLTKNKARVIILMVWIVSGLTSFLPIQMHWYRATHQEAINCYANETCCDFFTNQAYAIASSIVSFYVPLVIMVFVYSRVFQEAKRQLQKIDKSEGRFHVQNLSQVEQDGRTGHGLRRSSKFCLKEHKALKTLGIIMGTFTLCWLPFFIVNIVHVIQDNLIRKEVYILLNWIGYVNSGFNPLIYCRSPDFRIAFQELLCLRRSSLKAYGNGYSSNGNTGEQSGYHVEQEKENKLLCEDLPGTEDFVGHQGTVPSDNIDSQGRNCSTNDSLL

[2] = target: T6, D1 (dopaminergic receptor) (Homo sapiens, UniProt P21728); assay: radioligand competition binding, [3H]SCH 23390; conditions: read-out: % inhibition of the specific radioligand binding
T6 construct: Eurofins

[3] = target: T7, D2S (dopaminergic receptor) (Homo sapiens, UniProt P14416); assay: radioligand competition binding, [3H]7-OH-DPAT; conditions: read-out: % inhibition of the specific radioligand binding
T7 construct: Eurofins

M1 (muscarinic receptor) = target: T8, M1 (muscarinic receptor) (Homo sapiens, UniProt P11229); assay: radioligand competition binding, [3H]pirenzepine
T8 construct: Eurofins
T8 sequence (P11229 1-460): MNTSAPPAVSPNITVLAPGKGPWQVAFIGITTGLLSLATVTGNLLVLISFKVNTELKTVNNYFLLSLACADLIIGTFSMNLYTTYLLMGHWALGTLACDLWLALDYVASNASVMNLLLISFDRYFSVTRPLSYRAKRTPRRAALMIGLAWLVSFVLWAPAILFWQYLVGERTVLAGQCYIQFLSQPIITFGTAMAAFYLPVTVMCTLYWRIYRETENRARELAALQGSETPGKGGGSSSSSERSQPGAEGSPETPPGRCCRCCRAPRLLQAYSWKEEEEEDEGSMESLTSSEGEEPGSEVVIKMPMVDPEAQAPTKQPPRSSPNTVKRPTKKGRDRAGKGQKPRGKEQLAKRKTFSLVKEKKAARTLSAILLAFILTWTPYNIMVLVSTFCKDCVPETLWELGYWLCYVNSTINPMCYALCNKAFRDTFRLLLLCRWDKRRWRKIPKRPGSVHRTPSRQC

M2 (muscarinic receptor) = target: T9, M2 (muscarinic receptor) (Homo sapiens, UniProt P08172); assay: radioligand competition binding, [3H]AF-DX 384
T9 construct: Eurofins

M3 (muscarinic receptor) = target: T10, M3 (muscarinic receptor) (Homo sapiens, UniProt P20309); assay: radioligand competition binding, [3H]4-DAMP
T10 construct: Eurofins
T10 sequence (P20309 whole entry): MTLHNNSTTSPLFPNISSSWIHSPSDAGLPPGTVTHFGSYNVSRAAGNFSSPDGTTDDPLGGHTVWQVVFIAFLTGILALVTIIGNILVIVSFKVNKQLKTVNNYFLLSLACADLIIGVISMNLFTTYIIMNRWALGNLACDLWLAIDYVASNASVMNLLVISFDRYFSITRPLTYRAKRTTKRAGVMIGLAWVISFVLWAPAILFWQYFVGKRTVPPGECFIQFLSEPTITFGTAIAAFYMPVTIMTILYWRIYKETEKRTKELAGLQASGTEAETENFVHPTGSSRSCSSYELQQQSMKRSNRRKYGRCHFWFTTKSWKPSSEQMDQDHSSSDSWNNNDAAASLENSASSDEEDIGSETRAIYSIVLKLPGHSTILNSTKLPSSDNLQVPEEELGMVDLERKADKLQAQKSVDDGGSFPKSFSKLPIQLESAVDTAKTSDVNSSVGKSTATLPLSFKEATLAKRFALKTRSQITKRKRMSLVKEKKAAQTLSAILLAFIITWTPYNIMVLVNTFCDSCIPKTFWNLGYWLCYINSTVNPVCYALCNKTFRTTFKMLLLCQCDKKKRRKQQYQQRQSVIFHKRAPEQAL

Bradykinin receptor B2 = target: T11, Bradykinin receptor B2 (Homo sapiens, UniProt P30411); assay: radioligand competition binding, [3H]Bradykinin
T11 construct: Eurofins

Ca2+ Channel N-Type = Ca2+ Channel N-Type (Rattus norvegicus, UniProt Q02294); assay: biochemical; assay type: binding
Endothelin receptor ETA = target: T12, Endothelin receptor ETA (Homo sapiens, UniProt P25101); assay: radioligand competition binding, [125I]Endothelin-1
T12 construct: Eurofins

Estrogen receptor ERα = target: T13, Estrogen receptor ERα (Homo sapiens, UniProt P03372); assay: radioligand competition binding, [3H]Estradiol
T13 construct: Eurofins

GABAA receptor (benzod.) = assay: radioligand competition binding, [3H]Flunitrazepam; parameters: species or system rat
GABAB(1a,2) receptor = target: T14, GABAB(1a,2) receptor (Homo sapiens, UniProt Q9UBS5); assay: radioligand competition binding, [3H]CGP-54626
T14 construct: Eurofins
T14 sequence (Q9UBS5 15-961 limits assumed): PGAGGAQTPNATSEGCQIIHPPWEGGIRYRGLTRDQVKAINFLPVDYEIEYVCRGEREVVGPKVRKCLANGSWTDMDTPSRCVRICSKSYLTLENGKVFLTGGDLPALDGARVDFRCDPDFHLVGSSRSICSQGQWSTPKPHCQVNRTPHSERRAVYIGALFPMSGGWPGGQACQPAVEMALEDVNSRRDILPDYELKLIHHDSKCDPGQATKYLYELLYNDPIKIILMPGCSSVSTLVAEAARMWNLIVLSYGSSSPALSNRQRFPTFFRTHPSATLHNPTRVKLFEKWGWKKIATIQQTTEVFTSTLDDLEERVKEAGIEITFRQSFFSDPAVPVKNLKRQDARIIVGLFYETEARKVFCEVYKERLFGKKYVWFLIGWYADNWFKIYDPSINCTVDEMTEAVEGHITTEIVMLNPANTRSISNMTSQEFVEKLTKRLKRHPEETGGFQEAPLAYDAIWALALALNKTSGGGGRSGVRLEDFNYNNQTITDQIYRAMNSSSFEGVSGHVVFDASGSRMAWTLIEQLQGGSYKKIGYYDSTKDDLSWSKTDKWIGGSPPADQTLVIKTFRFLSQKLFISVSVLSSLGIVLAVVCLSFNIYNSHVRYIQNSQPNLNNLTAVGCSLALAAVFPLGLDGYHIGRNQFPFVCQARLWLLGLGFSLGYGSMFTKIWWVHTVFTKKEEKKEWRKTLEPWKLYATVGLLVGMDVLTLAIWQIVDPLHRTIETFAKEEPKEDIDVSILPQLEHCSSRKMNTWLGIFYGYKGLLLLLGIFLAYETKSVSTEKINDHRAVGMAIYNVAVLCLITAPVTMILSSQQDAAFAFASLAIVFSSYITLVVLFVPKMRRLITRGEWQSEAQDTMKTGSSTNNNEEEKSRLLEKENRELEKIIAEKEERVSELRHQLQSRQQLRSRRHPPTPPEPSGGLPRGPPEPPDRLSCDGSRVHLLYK
T14 sequence (O75899 42-941 partner): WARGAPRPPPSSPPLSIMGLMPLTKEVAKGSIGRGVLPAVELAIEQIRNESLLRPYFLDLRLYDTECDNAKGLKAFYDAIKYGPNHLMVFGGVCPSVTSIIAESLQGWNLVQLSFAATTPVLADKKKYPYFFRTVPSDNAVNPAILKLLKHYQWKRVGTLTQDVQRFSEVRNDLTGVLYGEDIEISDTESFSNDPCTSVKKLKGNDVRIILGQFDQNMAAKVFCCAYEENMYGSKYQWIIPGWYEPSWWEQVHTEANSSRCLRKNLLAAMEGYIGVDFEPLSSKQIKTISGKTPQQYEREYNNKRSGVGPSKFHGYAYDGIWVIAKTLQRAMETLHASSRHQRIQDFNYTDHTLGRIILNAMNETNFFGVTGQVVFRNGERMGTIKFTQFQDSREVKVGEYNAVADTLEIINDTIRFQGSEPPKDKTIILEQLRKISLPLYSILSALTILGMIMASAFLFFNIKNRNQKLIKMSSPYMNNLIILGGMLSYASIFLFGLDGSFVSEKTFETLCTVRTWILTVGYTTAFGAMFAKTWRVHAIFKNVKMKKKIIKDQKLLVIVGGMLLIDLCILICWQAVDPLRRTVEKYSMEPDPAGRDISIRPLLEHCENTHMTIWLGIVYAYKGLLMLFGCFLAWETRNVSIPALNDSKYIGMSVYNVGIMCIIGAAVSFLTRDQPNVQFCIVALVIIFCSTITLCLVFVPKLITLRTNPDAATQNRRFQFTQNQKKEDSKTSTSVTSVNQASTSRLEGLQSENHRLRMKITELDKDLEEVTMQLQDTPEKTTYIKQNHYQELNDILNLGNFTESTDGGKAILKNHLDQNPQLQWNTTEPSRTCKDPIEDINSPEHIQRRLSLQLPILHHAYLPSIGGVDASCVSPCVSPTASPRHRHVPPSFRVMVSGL

Kainate receptor = assay: radioligand competition binding, [3H]Kainic acid; parameters: species or system rat
NMDA receptor (Glycine) = target: T15, NMDA receptor (Glycine) (Rattus norvegicus, UniProt P35439); assay: radioligand competition binding, [3H]MDL 105,519
T15 construct: Eurofins

[4] = target: T16, Neuropeptide Y receptor Y1 (Homo sapiens, UniProt P25929); assay: radioligand competition binding, [125I]Peptide YY
T16 construct: Eurofins
T16 sequence (P25929 whole entry): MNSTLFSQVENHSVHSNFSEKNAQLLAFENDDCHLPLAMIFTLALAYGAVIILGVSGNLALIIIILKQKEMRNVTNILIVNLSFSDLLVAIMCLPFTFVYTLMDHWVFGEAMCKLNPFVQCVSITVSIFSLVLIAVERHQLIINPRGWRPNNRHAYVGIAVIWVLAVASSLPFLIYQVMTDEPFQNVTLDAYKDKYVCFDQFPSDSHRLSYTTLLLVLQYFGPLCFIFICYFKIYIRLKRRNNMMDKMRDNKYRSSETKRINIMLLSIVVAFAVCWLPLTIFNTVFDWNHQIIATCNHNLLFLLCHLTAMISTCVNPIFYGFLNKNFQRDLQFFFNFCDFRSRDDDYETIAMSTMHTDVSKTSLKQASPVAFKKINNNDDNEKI

Opioid receptor δ = target: T17, Opioid receptor δ (Homo sapiens, UniProt P41143); assay: radioligand competition binding, [3H] Naltrindole
T17 construct: Eurofins

Opioid receptor μ = target: T18, Opioid receptor μ (Homo sapiens, UniProt P35372); assay: radioligand competition binding, [3H]Diprenorphine (second line)
T18 construct: Eurofins

K+ Channel (hERG) = target: T19, K+ Channel (hERG) (Homo sapiens, UniProt Q12809); assay: radioligand competition binding, [3H]Astemizole; conditions: estimated from the % inhibition data
T19 construct: Eurofins

hERG K+ channel = target: T20, hERG K+ channel (Homo sapiens, UniProt Q12809); assay: radioligand competition binding, [3H]Astemizole; conditions: human, probe [3H]Astemizole; read-out: % inhibition of the specific radioligand binding
T20 construct: Eurofins

Phosphodiesterase = assay: radioligand competition binding, [3H]Rolipram; parameters: species or system rat
GABA transporter = GABA transporter (Rattus norvegicus, UniProt P23978); assay: biochemical; conditions: read-out: % inhibition of the specific radioligand binding
[5] = estimated from the % inhibition data
[6] = read-out: % inhibition of the specific radioligand binding

T1 sequence (P41595 whole entry): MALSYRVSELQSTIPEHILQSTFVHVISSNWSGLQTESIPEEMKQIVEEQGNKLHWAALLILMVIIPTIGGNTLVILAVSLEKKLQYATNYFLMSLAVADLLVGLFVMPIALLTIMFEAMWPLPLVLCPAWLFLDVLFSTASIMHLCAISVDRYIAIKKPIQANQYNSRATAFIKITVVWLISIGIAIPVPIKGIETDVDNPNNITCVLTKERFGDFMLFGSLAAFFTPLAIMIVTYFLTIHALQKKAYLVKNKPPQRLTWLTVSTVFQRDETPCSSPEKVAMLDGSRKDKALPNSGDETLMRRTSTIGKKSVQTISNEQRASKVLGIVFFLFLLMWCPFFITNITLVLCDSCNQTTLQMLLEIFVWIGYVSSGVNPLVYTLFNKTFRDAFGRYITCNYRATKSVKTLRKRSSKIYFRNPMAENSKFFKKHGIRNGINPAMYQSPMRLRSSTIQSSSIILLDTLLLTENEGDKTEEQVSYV

SMILES: COc1cc(C(F)(F)F)c(OC)cc1[C@@H]1CCCNC1 [(S)-11, 3-(2,5-Dimethoxy-4-(trifluoromethyl)phenyl)piperidine Hydrochloride]
- 5-HT2BR pKi ± S.E.M. (human 5-HT2BR; Table S3): 7.88 ± 0.07
- Ki (human 5-HT2BR; read-out: Ki at 5-HT2BR): 0.013 µM
- 5-HT2CR pKi ± S.E.M. (human 5-HT2CR; Table S3): 7.89 ± 0.10
- Ki (human 5-HT2CR; read-out: Ki at 5-HT2CR): 0.013 µM
- recovery at […] (MDR1; read-out: Mean Recovery A to B): 70%
- recovery at […] (MDR1; read-out: Mean Recovery B to A): 92%
- IC50 (5-HT1B; [5]): 1 to 10 µM
- inhibition at 1 µM (5-HT1B; [6]): 21%
- inhibition at 10 µM (5-HT1B; [6]): 68%
- IC50 (5-HT7; [5]): 1 to 10 µM
- inhibition at 1 µM (5-HT7; [6]): 17%
- inhibition at 10 µM (5-HT7; [6]): 62%
- IC50 [1, 5]: > 10 µM
- inhibition at 10 µM [1, 6]: 36%
- IC50 (β2 (adrenergic receptor); [5]): ~10 µM
- inhibition at 1 µM (β2 (adrenergic receptor); [6]): 2%
- inhibition at 10 µM (β2 (adrenergic receptor); [6]): 55%
- inhibition at 10 µM [2]: 30%
- inhibition at 10 µM [3]: 59%
- IC50 (M1 (muscarinic receptor); [5]): ~1 µM
- inhibition at 1 µM (M1 (muscarinic receptor); [6]): 51%
- inhibition at 10 µM (M1 (muscarinic receptor); [6]): 90%
- IC50 (M2 (muscarinic receptor); [5]): ~10 µM
- inhibition at 10 µM (M2 (muscarinic receptor); [6]): 40%
- IC50 (M3 (muscarinic receptor); [5]): ~1 µM
- inhibition at 1 µM (M3 (muscarinic receptor); [6]): 41%
- inhibition at 10 µM (M3 (muscarinic receptor); [6]): 90%
- IC50 (Bradykinin receptor B2; [5]): > 10 µM
- inhibition at 10 µM (Bradykinin receptor B2; [6]): 18%
- IC50 (Ca2+ Channel N-Type): > 10 µM
- inhibition at 10 µM (Ca2+ Channel N-Type; [6]): -5%
- IC50 (Endothelin receptor ETA; [5]): > 10 µM
- inhibition at 10 µM (Endothelin receptor ETA; [6]): 12%
- IC50 (Estrogen receptor ERα; [5]): > 10 µM
- inhibition at 10 µM (Estrogen receptor ERα; [6]): -2%
- % inhibition of the specific radioligand binding (GABAA receptor (benzod.); (S)-11 10 μM, n=1): -14%
- IC50 (GABAA receptor (benzod.); [5]): > 10 µM
- IC50 (GABAB(1a,2) receptor; [5]): > 10 µM
- inhibition at 10 µM (GABAB(1a,2) receptor; [6]): 6%
- % inhibition of the specific radioligand binding (Kainate receptor; (S)-11 10 μM, n=1): 9%
- IC50 (Kainate receptor; [5]): > 10 µM
- IC50 (NMDA receptor (Glycine); [5]): > 10 µM
- inhibition at 10 µM (NMDA receptor (Glycine); [6]): -20%
- IC50 [4, 5]: > 10 µM
- inhibition at 10 µM [4, 6]: -4%
- IC50 (Opioid receptor δ; [5]): > 10 µM
- inhibition at 10 µM (Opioid receptor δ; [6]): 18%
- IC50 (Opioid receptor μ; [5]): > 10 µM
- inhibition at 10 µM (Opioid receptor μ; [6]): 18%
- IC50 (K+ Channel (hERG)): > 10 µM
- inhibition at 10 µM (hERG K+ channel): 32%
- % inhibition of the specific radioligand binding (Phosphodiesterase; (S)-11 10 μM, n=1): 8%
- IC50 (Phosphodiesterase; [5]): > 10 µM
- inhibition at 10 µM (GABA transporter): 29%
